Data reported in ChEMBL document CHEMBL3885881, “DrugMatrix”.

Organism: Rattus norvegicus
Assay: DrugMatrix - Regimen: Daily Repeat
Format: toxicity, organism-based, Sprague-Dawley
Set-up: regimen Daily Repeat, gender Male, age 6-8 weeks
Settings: in vivo, po, route oral GAVAGE, […]
[1] = 0 mg/kg, 72 h, tissue Blood, dose level Control, time 3 day
[2] = 0 mg/kg, 72 h, tissue Plasma, dose level Control, time 3 day
[3] = 0 mg/kg, 120 h, tissue Blood, dose level Control, time 5 day
[4] = 0 mg/kg, 120 h, tissue Plasma, dose level Control, time 5 day
[5] = 72 h, tissue Blood, dose 6.3 mg/Kg, dose level Low, time 3 day
[6] = 72 h, tissue Plasma, dose 6.3 mg/Kg, dose level Low, time 3 day
[7] = 120 h, tissue Blood, dose 6.3 mg/Kg, dose level Low, time 5 day
[8] = 120 h, tissue Plasma, dose 6.3 mg/Kg, dose level Low, time 5 day

ZIRCONIUM(IV) CHLORIDE
ABSOLUTE BASOPHIL [1]: 0 CELLS/uL
ABSOLUTE EOSINOPHIL [1]: 13.67 CELLS/uL
ABSOLUTE LYMPHOCYTE [1]: 10069.5 CELLS/uL
ABSOLUTE MONOCYTE [1]: 50 CELLS/uL
ABSOLUTE SEGMENTED NEUTROPHIL [1]: 516.83 CELLS/uL
BASOPHIL [1]: 0%
EOSINOPHIL [1]: 0.17%
ERYTHROCYTE COUNT [1]: 5.44 x10E6/uL
HEMATOCRIT [1]: 33.88%
HEMOGLOBIN [1]: 13.23 G/DL
LEUKOCYTE COUNT [1]: 10.65 x10E3/uL
LYMPHOCYTE [1]: 94.67%
MEAN CORPUSCULAR HEMOGLOBIN [1]: 24.37 pg
MEAN CORPUSCULAR HEMOGLOBIN CONCENTRATION [1]: 39.05 G/DL
MONOCYTE [1]: 0.67%
NEUTROPHIL [1]: 4.5%
NUCLEATED RED BLOOD CELLS [1]: 0.33 /100WBC
PLATELET COUNT [1]: 414.5 x10E3/uL
ALANINE AMINOTRANSFERASE [2]: 72 u/L
ALKALINE PHOSPHATASE [2]: 375 u/L
ASPARTATE AMINOTRANSFERASE [2]: 87.5 u/L
BLOOD UREA NITROGEN [2]: 14 mg/dL
CARBON DIOXIDE [2]: 27.5 mmol/L
CHLORIDE [2]: 95.83 MEQ/L
CHOLESTEROL [2]: 68.5 mg/dL
CREATINE PHOSPHOKINASE [2]: 284.33 u/L
CREATININE [2]: 0.16 mg/dL
LACTATE DEHYDROGENASE [2]: 101.83 u/L
PHOSPHORUS [2]: 10.33 mg/dL
POTASSIUM [2]: 5.22 MEQ/L
TOTAL BILIRUBIN [2]: 0.13 mg/dL
TOTAL PROTEIN [2]: 5.43 G/DL
URIC ACID [2]: 0.8 mg/dL
ABSOLUTE BASOPHIL [3]: 0 CELLS/uL
ABSOLUTE EOSINOPHIL [3]: 20.67 CELLS/uL
ABSOLUTE LYMPHOCYTE [3]: 11518.33 CELLS/uL
ABSOLUTE MONOCYTE [3]: 47 CELLS/uL
ABSOLUTE SEGMENTED NEUTROPHIL [3]: 614 CELLS/uL
BASOPHIL [3]: 0%
EOSINOPHIL [3]: 0.17%
ERYTHROCYTE COUNT [3]: 5.61 x10E6/uL
HEMATOCRIT [3]: 34.25%
LEUKOCYTE COUNT [3]: 12.2 x10E3/uL
LYMPHOCYTE [3]: 94.33%
MEAN CORPUSCULAR HEMOGLOBIN [3]: 23.83 pg
MEAN CORPUSCULAR HEMOGLOBIN CONCENTRATION [3]: 39.08 G/DL
MEAN CORPUSCULAR VOLUME [3]: 61.03 fL
MONOCYTE [3]: 0.33%
NEUTROPHIL [3]: 5.17%
NUCLEATED RED BLOOD CELLS [3]: 0 /100WBC
PLATELET COUNT [3]: 941.83 x10E3/uL
ALANINE AMINOTRANSFERASE [4]: 68.83 u/L
ALKALINE PHOSPHATASE [4]: 492.67 u/L
ASPARTATE AMINOTRANSFERASE [4]: 83.33 u/L
BLOOD UREA NITROGEN [4]: 14 mg/dL
CARBON DIOXIDE [4]: 37 mmol/L
CHLORIDE [4]: 98.67 MEQ/L
CHOLESTEROL [4]: 56.5 mg/dL
CREATINE PHOSPHOKINASE [4]: 167.33 u/L
CREATININE [4]: 0.17 mg/dL
GLUCOSE [4]: 157.5 mg/dL
LACTATE DEHYDROGENASE [4]: 104.83 u/L
LIPASE [4]: 10 u/L
PHOSPHORUS [4]: 10.43 mg/dL
POTASSIUM [4]: 5.46 MEQ/L
TOTAL BILIRUBIN [4]: 0.17 mg/dL
TOTAL PROTEIN [4]: 5.72 G/DL
URIC ACID [4]: 0.85 mg/dL
ABSOLUTE BASOPHIL [5]: 0 CELLS/uL
ABSOLUTE EOSINOPHIL [5]: 0 CELLS/uL
ABSOLUTE LYMPHOCYTE [5]: 15285.67 CELLS/uL
ABSOLUTE MONOCYTE [5]: 331 CELLS/uL
ABSOLUTE SEGMENTED NEUTROPHIL [5]: 1716.67 CELLS/uL
BASOPHIL [5]: 0%
EOSINOPHIL [5]: 0%
ERYTHROCYTE COUNT [5]: 5.71 x10E6/uL
HEMOGLOBIN [5]: 13.97 G/DL
LEUKOCYTE COUNT [5]: 17.33 x10E3/uL
LYMPHOCYTE [5]: 88%
MEAN CORPUSCULAR HEMOGLOBIN CONCENTRATION [5]: 38.27 G/DL
MONOCYTE [5]: 2%
NEUTROPHIL [5]: 10%
NUCLEATED RED BLOOD CELLS [5]: 0 /100WBC
PLATELET COUNT [5]: 1101 x10E3/uL
ALANINE AMINOTRANSFERASE [6]: 74.67 u/L
ALKALINE PHOSPHATASE [6]: 510.33 u/L
ASPARTATE AMINOTRANSFERASE [6]: 87.33 u/L
BLOOD UREA NITROGEN [6]: 14.33 mg/dL
CARBON DIOXIDE [6]: 27 mmol/L
CHOLESTEROL [6]: 56.33 mg/dL
CREATINE PHOSPHOKINASE [6]: 244 u/L
CREATININE [6]: 0.15 mg/dL
GLUCOSE [6]: 186.67 mg/dL
LACTATE DEHYDROGENASE [6]: 186 u/L
PHOSPHORUS [6]: 12.53 mg/dL
POTASSIUM [6]: 5.75 MEQ/L
TOTAL BILIRUBIN [6]: 0.1 mg/dL
ABSOLUTE BASOPHIL [7]: 0 CELLS/uL
ABSOLUTE EOSINOPHIL [7]: 0 CELLS/uL
ABSOLUTE LYMPHOCYTE [7]: 13034.67 CELLS/uL
ABSOLUTE MONOCYTE [7]: 344.67 CELLS/uL
ABSOLUTE SEGMENTED NEUTROPHIL [7]: 1154 CELLS/uL
BASOPHIL [7]: 0%
EOSINOPHIL [7]: 0%
ERYTHROCYTE COUNT [7]: 6.21 x10E6/uL
HEMATOCRIT [7]: 38.6%
HEMOGLOBIN [7]: 14.47 G/DL
LEUKOCYTE COUNT [7]: 14.53 x10E3/uL
MEAN CORPUSCULAR HEMOGLOBIN [7]: 23.3 pg
MEAN CORPUSCULAR HEMOGLOBIN CONCENTRATION [7]: 37.47 G/DL
NEUTROPHIL [7]: 8%
NUCLEATED RED BLOOD CELLS [7]: 0 /100WBC
PLATELET COUNT [7]: 1100.67 x10E3/uL
ALANINE AMINOTRANSFERASE [8]: 68.67 u/L
ALKALINE PHOSPHATASE [8]: 472.33 u/L
ASPARTATE AMINOTRANSFERASE [8]: 84.33 u/L
BLOOD UREA NITROGEN [8]: 13.33 mg/dL
CARBON DIOXIDE [8]: 31.33 mmol/L
CHOLESTEROL [8]: 55.33 mg/dL
CREATINE PHOSPHOKINASE [8]: 232 u/L
CREATININE [8]: 0.14 mg/dL
LACTATE DEHYDROGENASE [8]: 112.67 u/L
PHOSPHORUS [8]: 11.63 mg/dL
POTASSIUM [8]: 6.33 MEQ/L
TOTAL BILIRUBIN [8]: 0.2 mg/dL
TOTAL PROTEIN [8]: 5.5 G/DL
